Laboratory results published in the NIST ThermoML archive (doi:10.1016/j.tca.2015.01.003).
Numbers after ± are expanded uncertainties.

Experiment: wn = mass fraction of the nth substance listed
Conditions: 288.15 K, 100 kPa, Liquid, Vibrating tube method

mass density (w1 = 0.2601) | mass density (w1 = 0.0924) | Compound
1237.48 ± 1.6 kg/m3 |  | O=S(=O)([O-])[O-].[Li+].[Li+] [lithium sulfate] + O
 | 1077.03 ± 1.2 kg/m3 | O=S(=O)([O-])[O-].[K+].[K+] [potassium sulfate] + O
